Patent publication US10064839B2, “Methods of treating liver diseases” (Zafgen, Inc., priority 2012, dated 2018)
pIC50: −log10 of the molar value.

Tests used:
[1] = molecular target: T1, recombinant human MetAP2 (Homo sapiens, UniProt P50579); assay: Recombinant human MetAP2 inhibition assay (MAS substrate, Amplex red fluorescence); assay type: biochemical; conditions: human recombinant MetAP2 manganese enzyme, 0.75 mM MAS substrate, 30 minutes at 25° C., pH 7.5; read-out: Activity (MetAP2 IC50 class)
T1 construct: made in house; host or cells: Sf9 insect cells
T1 sequence (P50579 whole entry): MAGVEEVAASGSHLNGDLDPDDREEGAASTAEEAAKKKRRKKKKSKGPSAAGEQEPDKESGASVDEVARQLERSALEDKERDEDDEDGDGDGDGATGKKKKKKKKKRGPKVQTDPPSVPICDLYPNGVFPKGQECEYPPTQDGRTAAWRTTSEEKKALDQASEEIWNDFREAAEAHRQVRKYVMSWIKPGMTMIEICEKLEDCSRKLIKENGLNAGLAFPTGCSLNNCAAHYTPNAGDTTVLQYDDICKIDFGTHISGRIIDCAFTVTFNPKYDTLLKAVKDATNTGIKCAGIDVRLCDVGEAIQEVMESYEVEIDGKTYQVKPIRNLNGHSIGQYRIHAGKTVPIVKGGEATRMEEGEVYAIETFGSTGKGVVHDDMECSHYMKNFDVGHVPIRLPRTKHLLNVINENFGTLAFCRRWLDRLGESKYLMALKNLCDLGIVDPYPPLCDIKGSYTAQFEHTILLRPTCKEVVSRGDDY
Description: Compounds are tested for their capacity to inhibit recombinant human MetAP2 activity using the following assay.
Human recombinant MetAP2 expressed in Sf9 cells followed by affinity purification and EDTA treatment to remove endogenous active site cation was dialysed against MnCl2 to produce the manganese enzyme used in the assay. The assay was carried out for 30 minutes at 25° C. in 50 mM HEPES buffer containing 100 mM NaCl, pH 7.5 the presence of 0.75 mM Methionine-Alanine-Serine (MAS) substrate and 50 µg/ml amino acid oxidase using a dilution of purified MetAP2 giving >3-fold signal: noise. Cleavage of the substrate by MetAP2 and oxidation of free methionine by amino acid oxidase was detected and quantified using fluorescence generated by Amplex red (10-acetyl-3,7-dihydroxyphenoxazine) in combination with horseradish peroxidase which detects H2O2 released during the oxidation step. The fluorescent signal was detected using a multiwell fluorimeter. Compounds were diluted in DMSO prior to addition to assay buffer, the final DMSO concentration in the assay being 1%.
IC50 values are calculated using the XLfit software package (version 2.0.5).

[2] = tested on: diet induced obese mice (C57BL6); assay: Diet induced obese mice, 10 days oral 30 mg/kg: body weight and serum cholesterol; assay type: in vivo, mouse; conditions: DIO C57BL6 mice, 30 mg/kg oral gavage; for Cholesterol Change: serum
Description: Compounds were tested in diet induced obese mice (C57BL6) that were on a 65% high fat diet for 8-10 weeks. Mice were dosed for 10 days by oral gavage with 30 mg/kg of the compounds listed. Their body weights were recorded along with serum chemistries including cholesterol.

[3] = tested on: NASH mice; assay: Non-alcoholic steatohepatitis (STZ + high fat diet) mouse model; assay type: in vivo
Description: NASH was induced in 48 male mice by a single subcutaneous injection of 200 μg streptozotocin (STZ; Sigma-Aldrich) in the back of mice 2 days after birth, and by feeding with high fat diet (HFD; 57 kcal % fat) after 4 weeks of age. At 5 weeks of age, the NASH mice were randomized into 6 groups of 8 mice based on body weight. Eight male littermates, fed with normal diet (without STZ treatment, were used for the Normal group. Vehicle, Compound A and Telmisartan were administered by the oral route in a volume of 10 mL/kg body weight.
Compound A was administered twice daily at doses of 1, 3 or 10 mg/kg body weight (i.e., 2, 6 or 20 mg/kg/day) and once daily at dose of 30 mg/kg body weight. Telmisartan was administered once daily at a dose of 10 mg/kg body weight.
C57BL/6 mice (15-day pregnant female) were obtained from Charles River Laboratories Japan (Japan). The animals were maintained in a SPF facility under controlled conditions of temperature (23±2° C.), humidity (45±10%), lighting (12-hour artificial light and dark cycles; light from 8:00 to 20:00) and air exchange. A high pressure (20±4 Pa) was maintained in the experimental room to prevent contamination of the facility.
Mice were fasted for 4 hours before blood was collected at the time of sacrifice. HbA1c levels were quantified in whole blood samples by DCA Vantage Analyzer (Siemens Healthcare Diagnostics, USA). For plasma biochemistry, blood was collected in polypropylene tubes with anticoagulant (Novo-Heparin;) and centrifuged at 1,000×g for 15 minutes at 4° C. The supernatant was collected and stored at −80° C. until use. Plasma levels of glucose, ALT, TG and total cholesterol were measured by FUJI DRI-CHEM 7000 (Fujifilm, Japan). Plasma insulin concentration was quantified by the Ultra Sensitive Mouse Insulin ELISA Kit.
Liver total lipid-extracts were obtained by Folch's method (Folch J. et al., J. Biol. Chem. 1957; 226: 497). Liver samples were homogenized in chloroform-methanol (2:1, v/v) and incubated overnight at room temperature. After washing with chloroform-methanol-water (8:4:3, v/v/v), the extracts were evaporated to dryness, and dissolved in isopropanol. Liver TG levels were measured by Triglyceride E-test (Wako Pure Chemical Industries). Extracts were diluted 2-fold in isopropanol when the TG content exceeded the detection limit.
For HE staining, sections were cut from paraffin blocks of liver tissue prefixed in Bouin's solution and stained with Lillie-Mayer's Hematoxylin (Muto Pure Chemicals, Japan) and eosin solution (Wako Pure Chemical Industries). NAFLD Activity score (NAS) was calculated according to the criteria of Kleiner (Kleiner D E et al., Hepatology, 2005; 41:1313). To visualize collagen deposition, Bouin's fixed liver sections were stained using picro-Sirius red solution (Waldeck, Germany). To visualize macro- and microvesicular fat, cryosections were cut from frozen liver tissues, prefixed in 10% neutral buffered formalin, embedded in Tissue-Tek O.C.T. compound (Sakura Finetek Japan, Japan), and stained with Oil Red O (Sigma-Aldrich). For immunohistochemistry, sections were cut from frozen liver tissues embedded in Tissue-Tek O.C.T. compound and fixed in acetone. Endogenous peroxidase activity was blocked using 0.03% H2O2 for 5 minutes, followed by incubation with Block Ace (Dainippon Sumitomo Pharma, Japan) for 10 minutes. The sections were incubated with a 200-fold dilution of anti-F4/80 antibody (BMA Biomedicals, Switzerland) over night at 4° C. After incubation with secondary antibody (HRP-Goat anti-rat antibody, Invitrogen, USA), enzyme-substrate reactions were performed using 3, 3′-diaminobenzidine/H2O2 solution (Nichirei, Japan). […]

Row | pIC50 [1] | Compound | also measured
1 | > 7.30 | O=C(O)c1c(NS(=O)(=O)c2ccccc2)ccc2c3c(cnc12)OCC3 | 
2 | 6.30 to 7.30 | CCN1CCC[C@H]1C(=O)N(C)Cc1cc(F)ccc1S(=O)(=O)Nc1ccc2c(c1C(=O)O)OC[C@@H]1C[C@H]21 (mixture of isomers) | 
3 | 6.30 to 7.30 | CCN1CC[C@@H](N(C)C(=O)Cc2cc(F)ccc2S(=O)(=O)Nc2ccc3c(c2C(=O)O)OC[C@@H]2C[C@H]32)C1 (mixture of isomers) | 
4 | 6.30 to 7.30 | CCN1CC[C@H](N(C)C(=O)Cc2cc(F)ccc2S(=O)(=O)Nc2ccc3c(c2C(=O)O)OC[C@@H]2C[C@H]32)C1 (mixture of isomers) | 
5 | 6.30 to 7.30 | CCN1CC[C@@H](NC(=O)Cc2cc(F)ccc2S(=O)(=O)Nc2ccc3c(c2C(=O)O)OC[C@@H]2C[C@H]32)C1 (mixture of isomers) | 
6 | > 7.30 | CCN(CC)CC/C=C\c1cc(F)ccc1S(=O)(=O)Nc1ccc2c(c1C(=O)O)OC[C@@H]1C[C@H]21 (racemic) [(1aRS,7bSR)-5-[2((Z)-4-Diethylaminobut-1-enyl)-4-fluorobenzenesulfonyl-amino]-1,1a,2,7b-tetrahydrocyclopropa[c]chromene-4-carboxylic acid] | 
7 | 6.30 to 7.30 | CCN(CC)C/C=C/c1cc(F)ccc1S(=O)(=O)Nc1ccc2c(c1C(=O)O)OC[C@@H]1C[C@]21C (racemic) [(1aRS,7bSR)-5-[2-((E)-3-Diethylaminoprop-1-enyl)-4-fluorobenzenesulfonylamino]-7b-methyl-1,1a,2,7b-tetrahydrocyclopropa[c]chromene-4-carboxylic acid] | 
8 | > 7.30 | CCN(CC)C/C=C\c1cc(F)ccc1S(=O)(=O)Nc1ccc2c(c1C(=O)O)OC[C@@H]1C[C@]21C (racemic) [(1aRS,7bSR)-5-[2-((Z)-3-Diethylaminoprop-1-enyl)-4-fluorobenzenesulfonylamino]-7b-methyl-1,1a,2,7b-tetrahydrocyclopropa[c]chromene-4-carboxylic acid] | 
9 | 6.30 to 7.30 | CCN1CC(CNc2ccccc2S(=O)(=O)Nc2ccc3c(c2C(=O)O)OC[C@@H]2C[C@H]32)C1 (racemic) [(1aRS,7bSR)-5-{2-[(1-Ethylazetidin-3-ylmethyl)amino]benzene-sulfonylamino}-1,1a,2,7b-tetrahydrocyclopropa[c]chromene-4-carboxylic acid] | 
10 | 6.30 to 7.30 | CCN1CC[C@@H](Cc2cc(F)ccc2S(=O)(=O)Nc2ccc3c(c2C(=O)O)OCC2CC32)C1 (single isomer, unassigned) [listing 1 of 2 here] | 
11 | 6.30 to 7.30 | O=C(O)c1c(NS(=O)(=O)c2ccc(F)cc2/C=C\CN2CCCC2)ccc2c1OCC1CC21 (single isomer, unassigned) [listing 1 of 2 here] | 
12 | > 7.30 | CCNC/C=C\c1cc(F)ccc1S(=O)(=O)Nc1ccc2c(c1C(=O)O)OCC1CC21 (single isomer, unassigned) [listing 1 of 2 here] | 
13 | > 7.30 | CCN1CC[C@@H](Cc2cc(F)ccc2S(=O)(=O)Nc2ccc3c(c2C(=O)O)OCC2CC32)C1 (single isomer, unassigned) [listing 2 of 2 here] | 
14 | > 7.30 | CCN(CC)C/C=C\c1ccccc1S(=O)(=O)Nc1ccc2c(c1C(=O)O)OCC1CC21 (single isomer, unassigned) [listing 2 of 2 here] | 
15 | 6.30 to 7.30 | O=C(O)c1c(NS(=O)(=O)c2ccc(F)cc2/C=C\CN2CCCC2)ccc2c1OCC1CC21 (single isomer, unassigned) [listing 2 of 2 here] | 
16 | 6.30 to 7.30 | CCNC/C=C\c1cc(F)ccc1S(=O)(=O)Nc1ccc2c(c1C(=O)O)OCC1CC21 (single isomer, unassigned) [listing 2 of 2 here] | 
17 | 6.30 to 7.30 | (1aRS,7bSR)-5-{2[(Z)-3-((S)-3-hydroxypyrrolidin-1-yl)aminoprop-1-enyl]-4-fluorobenzenesulfonylamino}-1,1a,2,7b-tetrahydrocyclopropa[c]chromene-4-carboxylic acid | 

Second part, the compound before the results:

Row | Compound | pIC50 [1] | also measured
18 | CCN(CC)C/C=C\c1ccccc1S(=O)(=O)Cc1ccc(-c2ccoc2)c(OC)c1C(=O)O |  | Body Weight Change [2]: −6.0%; Cholesterol Change [2]: No change
19 | CCN(CC)C/C=C\c1cc(F)ccc1S(=O)(=O)Nc1ccc2c(c1C(=O)O)OCc1occc1-2 |  | Body Weight Change [2]: −7.0%; Cholesterol Change [2]: −35%
20 | CCN(CC)C/C=C\c1cc(F)ccc1S(=O)(=O)Nc1ccc2c(c1C(=O)O)OC[C@H]1CCCN21 |  | Body Weight Change [2]: −2.0%; Cholesterol Change [2]: −24%
21 | CCN(CC)C/C=C\c1cc(F)ccc1S(=O)(=O)Nc1ccc2c(c1C(=O)O)OC[C@@H]1[C@H]2C1(F)F (racemic) [(1aRS,7bSR)-5-[2-((Z)-3-Diethylaminoprop-1-enyl)-4-fluorobenzene-sulfonylamino]-1,1-difluoro-1,1a,2,7b-tetrahydrocyclopropa[c]chromene-4-carboxylic acid] | > 7.30 | 
22 | O=C(O)c1c(NS(=O)(=O)c2ccc(F)cc2/C=C\CN2CC(O)C2)ccc2c1OC[C@@H]1C[C@H]21 (racemic) [(1aRS,7bSR)-5-{2[(Z)-3-(3-Hydroxyazetidin-1-yl)prop-1-enyl]-4-fluorobenzene-sulfonylamino}-1,1a,2,7b-tetrahydrocyclopropa[c]chromene-4-carboxylic acid] | > 7.30 | 
23 | CC(C)NC/C=C\c1cc(F)ccc1S(=O)(=O)Nc1ccc2c(c1C(=O)O)OC[C@@H]1C[C@H]21 (racemic) [(1aRS,7bSR)-5-{2[(Z)-3-(propan-2-yl)aminoprop-1-enyl]-4-fluorobenzene-sulfonylamino}-1,1a,2,7b-tetrahydrocyclopropa[c]chromene-4-carboxylic acid] | 6.30 to 7.30 | 
24 | CCN(CC)C/C=C\c1ccccc1S(=O)(=O)Nc1ccc2c(c1C(=O)O)OCC1CC21 (single isomer, unassigned) [listing 1 of 2 here] | 6.30 to 7.30 | 
25 | CN(C)CCCNc1ccccc1S(=O)(=O)Nc1ccc2c(c1C(=O)O)OCC1CC21 (single isomer, unassigned) | > 7.30 | 
26 | CN(C)CCCCNc1ccccc1S(=O)(=O)Nc1ccc2c(c1C(=O)O)OCC1CC21 (single isomer, unassigned) | > 7.30 | 
27 | CCCc1nc2c(C)cc(-c3nc4ccccc4n3C)cc2n1Cc1ccc(-c2ccccc2C(=O)O)cc1 [Telmisartan, reference compound] |  | Mean body weight at the day before sacrifice ([3]; Telmisartan 10 mg/kg once daily oral, 5 to 9 weeks of age, Vehicle 18.8±1.0 g): 15.6 ± 1.8 g; Fibrosis area (Sirius red-positive area) ([3]; Telmisartan 10 mg/kg once daily, Vehicle 1.07±0.18%): 0.42±0.08%; Inflammation area (F4/80-positive area) ([3]; Telmisartan 10 mg/kg once daily, Vehicle 3.57±0.88%): 3.84±0.86%; NAFLD Activity score (NAS) ([3]; Telmisartan 10 mg/kg once daily, Vehicle 5.4±0.9): 2.3±0.7; Fat deposition area (oil red-positive area) ([3]; Telmisartan 10 mg/kg once daily, Vehicle 23.57±6.52%): 17.29±7.66%; Liver TG content ([3]; Telmisartan 10 mg/kg once daily, Vehicle 67.3±29.0): 30.7±11.4 mg/g liver
28 | (1aRS,7bSR)-5-{2[(Z)-3-((R)-3-Hydroxypyrrolidin-1-yl)aminoprop-1-enyl]-4-fluorobenzene-sulfonylamino}-1,1a,2,7b-tetrahydro-cyclopropa[c]chromene-4-carboxylic acid | 6.30 to 7.30 | 
